The structures appear in SMILES notation. Like-named read-outs stand apart in the source and are kept apart here.

These results are taken from US20260008775A1, “AZOLE MODULATORS OF CHOLESTEROL BIOSYNTHESIS AND THEIR USE FOR PROMOTING REMYELINATION” (GENENTECH, INC., priority 2022, published 2026).

In one assay the test system is EpiSC-derived OPCs. The assay can be described thus: In vitro phenotypic screening of OPCs, MBP high-content imaging (percentage of oligodendrocytes). Format: cell-based, mouse. The conditions noted are these: for EC50: 3 days, MBP stain, dose-response 0.5 nM to 1000 nM, read-out: OPC EC50. As to the method:
To assess effects of treatments on OPCs, all treatments were assayed in two or more independent platings of epiblast stem cell-derived OPCs (EpiSC). EpiSC-derived OPCs were obtained using in vitro differentiation protocols and culture conditions described previously (Najm et al, 2011, Nature Methods). OPCs were expanded and frozen down in aliquots. OPCs were thawed into growth conditions for at least one passage before use in further assays.
EpiSC-derived OPCs were grown and expanded in poly-L-ornithine (PO) and laminin-coated flasks in N2B27 media (DMEM/F12 (Gibco), N2-MAX (R&D Systems), B-27 (ThermoFisher), and GlutaMax (Gibco)) supplemented with FGF2 (10 μg/mL, R&D systems, 233-FB-025) and PDGF-AA (10 μg/mL, R&D systems, 233-AA-050) before harvesting for experiments. The cells were seeded onto poly-L-ornithine or poly-D-lysine coated CellCarrier Ultra plates (PerkinElmer) coated with laminin (Sigma, L2020) at a density of 150,000/cm^2 in N2B27 media without growth factors. For dose-response testing, a 1000× compound stock in dimethyl sulphoxide (DMSO) was added to assay plates, resulting in 8-point dose curves with final concentrations between 1000 nM and 0.5 nM. Positive controls and DMSO vehicle controls were included in each assay plate. Cells were incubated under standard conditions (37° C., 5% CO2) for 3 days and fixed with 4% paraformaldehyde (PFA) in phosphate buffered saline (PBS) for 20 min. Fixed plates were washed with PBS, permeabilized with 0.1% Triton X-100, and blocked with 10% donkey serum (v/v) in PBS for 40 min. Then, cells were labelled with MBP antibodies (Abcam, ab7349; 1:200) for 2 h at room temperature, washed with PBS, and stained with Alexa Fluor conjugated secondary antibodies (1:500) for 45 min. Nuclei were visualized by DAPI staining (Sigma; […]), followed by further PBS washes.
Cells and cell culture plates were imaged on the Operetta High Content Imaging and Analysis system (PerkinElmer). Analysis (PerkinElmer Harmony and Columbus software) began by identifying intact nuclei stained by DAPI. The peri-nuclear region of each cell was then cross-referenced with the mature myelin protein (MBP) stain to identify oligodendrocyte nuclei, and from this the percentage of oligodendrocytes was calculated. EC50 values were calculated using The Levenberg-Marquardt algorithm to fit a Hill equation to dose-response data (0.5 nM to 1000 nM).

The target of assay [1] is human emopamil binding protein and human 7-dehydrocholesterol reductase (hEBP-DHCR7) (Homo sapiens (Human), UniProt Q15125). Nature of the assay: hEBP-DHCR7 radioligand binding assay (filter binding, membranes of co-expressing HEK293 cells). As to conditions: competition with [3H] radioligand, 8 doses 0.06 to 5000 nM, Ki calculated from IC50. The method in brief: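 Compound, either single dose 1 μM or eight 5-fold dilutions from 0.06 to 5000 nM, competed with a [3H]-labelled ligand added at 25 nM for binding to co-expressing HEK293 membranes. IC50 came from nonlinear regression, with full block and DMSO as controls, then Cheng–Prusoff conversion to Ki.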

For assay [2], the system named is zymostenol accumulation (EBP) in EpiSC-derived OPCs. The assay can be described thus: GC/MS-based sterol profiling, zymostenol accumulation in EpiSC-derived OPCs. Format: cell-based, mouse. As to conditions: for EC50: EpiSC-derived OPCs, 24 hr, 8 doses from 0.15 nM to 333 nM, read-out: Mouse Zymostenol GCMS EC50. The method, boiled down:
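Zymostenol level is expressed relative to that after 24 h with 100 nM positive-control reference, measured by full-scan GC/MS (m/z 458) with cholesterol-d7 internal standard after BSTFA derivatisation. Cells were EpiSC-derived OPCs, 100,000/well in N2B27 without growth factors, treated 24 h, from two or more independent platings.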

Sequence of human emopamil binding protein and human 7-dehydrocholesterol reductase (hEBP-DHCR7) (Q15125 whole entry): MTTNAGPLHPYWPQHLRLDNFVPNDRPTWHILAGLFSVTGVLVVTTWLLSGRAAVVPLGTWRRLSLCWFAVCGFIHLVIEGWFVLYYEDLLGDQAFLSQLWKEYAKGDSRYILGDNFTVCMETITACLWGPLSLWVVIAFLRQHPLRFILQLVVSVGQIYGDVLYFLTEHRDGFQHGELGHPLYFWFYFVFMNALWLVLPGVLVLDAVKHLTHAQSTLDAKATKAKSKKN

For `FC(F)(F)c1cccc(-c2nc([C@H]3CC[C@H](N4CCCOCC4)C3)n(C3CC3)n2)n1` (single isomer, unassigned) [9*], the EC50 in the assay with EpiSC-derived OPCs (Mus musculus, 72 h) was determined as 73.4 nM; in assay [2] (Mus musculus, 24 h) it was 21.4 nM. For the same compound, the Ki in assay [1] is 113 nM.

As to `FC(F)(F)c1cccc(-c2nc([C@H]3CC[C@@H](N4CCCOCC4)C3)n(C3CC3)n2)n1` (single isomer, unassigned) [10*], the EC50 in the assay with EpiSC-derived OPCs (Mus musculus, 72 h) came to 54.2 nM; in assay [2] (Mus musculus, 24 h), 18 nM. In assay [1], the Ki was 95.8 nM.

For the compound `FC(F)(F)c1cccc(-c2nc([C@@H]3CC[C@@H](N4CCCOCC4)C3)n(C3CC3)n2)n1` (single isomer, unassigned) [11*], the EC50 with EpiSC-derived OPCs (Mus musculus, 72 h) turned out to be 108 nM; in assay [2] (Mus musculus, 24 h), 19.7 nM. Besides, the Ki in assay [1] was 134 nM.

In the case of `FC(F)(F)c1cccc(-c2nc([C@@H]3CC[C@H](N4CCCOCC4)C3)n(C3CC3)n2)n1` (single isomer, unassigned) [12*], the EC50 in the assay on EpiSC-derived OPCs (Mus musculus, 72 h) was found to be 63.8 nM; in assay [2] (Mus musculus, 24 h) it was 64 nM. Moreover, the Ki in assay [1] was 120 nM.

Consider `CC(C)n1nc(-c2cccc(C(F)(F)F)c2)nc1[C@@H]1CC[C@@H](N2CCOCC2)C1` (single isomer, unassigned) [21*], for which the EC50 in the assay with EpiSC-derived OPCs (Mus musculus, 72 h) was 51.7 nM; in assay [2] (Mus musculus, 24 h), 7.71 nM. In addition, in assay [1], the Ki was 27.1 nM.

For `CC(C)n1nc(-c2cccc(C(F)(F)F)c2)nc1[C@@H]1CC[C@H](N2CCOCC2)C1` (single isomer, unassigned) [22*], the half-maximal effective concentration (EC50) in the assay on EpiSC-derived OPCs (Mus musculus, 72 h) came to 6.73 nM; in assay [2] (Mus musculus, 24 h) it was 1.33 nM. The Ki in assay [1] was 10.9 nM.

Take `CC(C)n1nc(-c2cccc(C(F)(F)F)c2)nc1[C@H]1CC[C@H](N2CCOCC2)C1` (single isomer, unassigned) [23*]: the values for the EC50 (with EpiSC-derived OPCs; in assay [2]) were 132 nM and 13.1 nM, respectively. The Ki in assay [1] is 15.5 nM.

`CC(C)n1nc(-c2cccc(C(F)(F)F)c2)nc1[C@H]1CC[C@H](N2CCOCC2)C1` (single isomer, unassigned) [24*]: the values for the EC50 (in the assay on EpiSC-derived OPCs; in assay [2]) were 11.3 nM and 1.65 nM, respectively. Further, in assay [1], the Ki is 8.9 nM.

`CC(C)n1nc(-c2cc(C(F)(F)F)ccn2)nc1[C@@H]1CC[C@H](N2CCOCC2)C1` (single isomer, unassigned) [28*]: the EC50 with EpiSC-derived OPCs (Mus musculus, 72 h) was found to be 80.4 nM; in assay [2] (Mus musculus, 24 h) it was 8.11 nM. In addition, the Ki in assay [1] was 29.9 nM.

For the compound `CC(C)n1nc(-c2cncc(C(F)(F)F)c2)cc1[C@H]1[C@@H]2CC(N3CCCOCC3)C[C@@H]21` (single isomer, unassigned) [30*], the EC50 in the assay on EpiSC-derived OPCs (Mus musculus, 72 h) was 90 nM; in assay [2] (Mus musculus, 24 h) it was 14.8 nM. For the same compound, in assay [1], the Ki was 32.5 nM.

Take `CC(C)n1nc(-c2cccc(C(F)(F)F)n2)nc1[C@@H]1CCC(N2CCOCC2)C1` (stereo in doubt) [25*, 4-((1R,3R)-3-(1-isopropyl-3-(6-(trifluoromethyl)pyridin-2-yl)-1H-1,2,4-triazol-5-yl)cyclopentyl)morpholine]: the EC50 in the assay on EpiSC-derived OPCs (Mus musculus, 72 h) amounted to 65.5 nM; in assay [2] (Mus musculus, 24 h) it was 234 nM.

As to `CC(C)n1nc(-c2cccc(C(F)(F)F)c2)nc1[C@H]1[C@@H]2C[C@@H](N3CCOCC3)C[C@@H]21` [20*, 4-((1R,3s,5S,6r)-6-(1-isopropyl-3-(3-(trifluoromethyl)phenyl)-1H-1,2,4-triazol-5-yl)bicyclo[3.1.0]hexan-3-yl)morpholine], the EC50 came out at 232 nM in the assay with EpiSC-derived OPCs (Mus musculus, 72 h) and 64 nM in assay [2] (Mus musculus, 24 h).

Take `CC(C)n1nc(-c2cncc(C(F)(F)F)c2)cc1[C@H]1[C@@H]2C[C@@H](N3CCOCC3)C[C@@H]21` [Cmpd 202]: the concentration for a half-maximal effect (EC50) worked out at 723 nM with EpiSC-derived OPCs (Mus musculus, 72 h) and 236 nM in assay [2] (Mus musculus, 24 h).

Consider `CC(C)n1nc(-c2cccc(C(F)(F)F)c2)nc1[C@H]1[C@@H]2C[C@H](N3CCCOCC3)C[C@@H]21` [Compound 13, 4-((1R,3r,5S,6r)-6-(1-isopropyl-3-(3-(trifluoromethyl)phenyl)-1H-1,2,4-triazol-5-yl)bicyclo[3.1.0]hexan-3-yl)-1,4-oxazepane], for which the EC50 with EpiSC-derived OPCs (Mus musculus, 72 h) is 3.18 nM; in assay [2] (Mus musculus, 24 h), 1.48 nM.

In the case of `CC(C)n1nc(-c2cccc(C(F)(F)F)c2)nc1[C@H]1[C@@H]2C[C@@H](N3CCCOCC3)C[C@@H]21` [Compound 14, 4-((1R,3s,5S,6r)-6-(1-isopropyl-3-(3-(trifluoromethyl)phenyl)-1H-1,2,4-triazol-5-yl)bicyclo[3.1.0]hexan-3-yl)-1,4-oxazepane], the half-maximal effective concentration (EC50) in the assay on EpiSC-derived OPCs (Mus musculus, 72 h) came out at 81.3 nM; in assay [2] (Mus musculus, 24 h), 40.2 nM.

Consider `CC(C)n1nc(-c2ccc(C(F)(F)F)nc2)nc1[C@H]1[C@@H]2C[C@H](N3CCCOCC3)C[C@@H]21` [Compound 15, 4-((1R,3r,5S,6r)-6-(1-isopropyl-3-(6-(trifluoromethyl)pyridin-3-yl)-1H-1,2,4-triazol-5-yl)bicyclo[3.1.0]hexan-3-yl)-1,4-oxazepane], for which the EC50 with EpiSC-derived OPCs (Mus musculus, 72 h) was found to be 22.4 nM; in assay [2] (Mus musculus, 24 h) it was 5.98 nM.

In the case of `CC(C)n1nc(-c2ccc(C(F)(F)F)nc2)nc1[C@H]1[C@@H]2C[C@@H](N3CCCOCC3)C[C@@H]21` [Compound 16, 4-((1R,3s,5S,6r)-6-(1-isopropyl-3-(6-(trifluoromethyl)pyridin-3-yl)-1H-1,2,4-triazol-5-yl)bicyclo[3.1.0]hexan-3-yl)-1,4-oxazepane], the EC50 was determined as 333 nM in the assay with EpiSC-derived OPCs (Mus musculus, 72 h) and 203 nM in assay [2] (Mus musculus, 24 h).

With `CC(C)n1nc(-c2cccc(OC(F)(F)F)c2)nc1[C@H]1[C@@H]2C[C@H](N3CCCOCC3)C[C@@H]21` [Compound 17, 4-((1R,3r,5S,6r)-6-(1-isopropyl-3-(3-(trifluoromethoxy)phenyl)-1H-1,2,4-triazol-5-yl)bicyclo[3.1.0]hexan-3-yl)-1,4-oxazepane], the EC50 in the assay on EpiSC-derived OPCs (Mus musculus, 72 h) was determined as 4.16 nM; in assay [2] (Mus musculus, 24 h), 1.74 nM.

On to `CC(C)n1nc(-c2cccc(OC(F)(F)F)c2)nc1[C@H]1[C@@H]2C[C@@H](N3CCCOCC3)C[C@@H]21` [Compound 18, 4-((1R,3s,5S,6r)-6-(1-isopropyl-3-(3-(trifluoromethoxy)phenyl)-1H-1,2,4-triazol-5-yl)bicyclo[3.1.0]hexan-3-yl)-1,4-oxazepane], for which the EC50 in the assay on EpiSC-derived OPCs (Mus musculus, 72 h) is 78.5 nM; in assay [2] (Mus musculus, 24 h), 52.8 nM.

With `CC(C)n1nc(-c2cncc(C(F)(F)F)c2)cc1[C@H]1[C@@H]2C[C@H](N3CCOCC3)C[C@@H]21` [Compound 171, 4-((1R,3r,5S,6r)-6-(1-Isopropyl-3-(5-(trifluoromethyl)pyridin-3-yl)-1H-pyrazol-5-yl)bicyclo[3.1.0]hexan-3-yl)morpholine], the EC50 with EpiSC-derived OPCs (Mus musculus, 72 h) is 16.6 nM; in assay [2] (Mus musculus, 24 h), 5.88 nM.

Turning to `CC(C)n1nc(-c2ccc(C(F)(F)F)cn2)cc1[C@H]1[C@@H]2C[C@H](N3CCOCC3)C[C@@H]21` [Compound 174, 4-((1R,3r,5S,6r)-6-(1-Isopropyl-3-(5-(trifluoromethyl)pyridin-2-yl)-1H-pyrazol-5-yl)bicyclo[3.1.0]hexan-3-yl)morpholine], the concentration for a half-maximal effect (EC50) in the assay with EpiSC-derived OPCs (Mus musculus, 72 h) worked out at 35 nM; in assay [2] (Mus musculus, 24 h) it was 7.51 nM.

`CC(C)n1nc(-c2cc(C(F)(F)F)ncn2)cc1[C@H]1[C@@H]2C[C@@H](N3CCOC[C@H]3C)C[C@@H]21` [Compound 202, (R)-4-((1R,3s,5S,6R)-6-(1-isopropyl-3-(6-(trifluoromethyl)pyrimidin-4-yl)-1H-pyrazol-5-yl)bicyclo[3.1.0]hexan-3-yl)-3-methylmorpholine]: the EC50 was 21.6 nM in the assay on EpiSC-derived OPCs (Mus musculus, 72 h) and 4.76 nM in assay [2] (Mus musculus, 24 h).

As to `CC(C)n1nc(-c2cnc(N)c(C(F)(F)F)c2)cc1[C@H]1[C@@H]2C[C@H](N3CCCOCC3)C[C@@H]21` [Compound C, reference compound], the EC50 was found to be 75 nM with EpiSC-derived OPCs (Mus musculus, 72 h) and 15.6 nM in assay [2] (Mus musculus, 24 h). Besides, the “fold decrease in activity in the OPC assay” value in the assay on EpiSC-derived OPCs (as compared to compound 29*) stood at 3.8 fold. Moreover, in assay [2] (as compared to compound 29*), the “fold decrease in activity in the mouse zymostenol assay” value stood at 4.9 fold.
